One assay concerns the target T1, full length AKT E17K (Homo sapiens, UniProt P31749, E17K).
T1 construct: host or cells: HEK-293 (ATCC CRL-1573)
Nature of the assay: NanoBRET Target Engagement (TE) Assay. The format is cell-based. The following applies: competitive displacement of tracer in cells, read-out: AKT1 E17K IC50. An excerpt: The NanoBRET™ Target Engagement (TE) Intracellular Kinase Assays are based on the NanoBRET™ System (Promega Corporation), an energy transfer technique designed to measure molecular proximity in living cells. The NanoBRET™ TE Assays measure the apparent affinity of test compounds by competitive displacement of the NanoBRET™ tracer compound, which is a cell permeable molecule engineered to be reversibly bound to a NanoLuc® luciferase-kinase fusion expressed in cells. For compound screening, when a test compound binds to the selected kinase, the BRET signal is attenuated. […] All cells were evaluated for viability prior to transfection and optimization of the transfection was done prior to experimentation. […] Following transfection, cells were washed and resuspended in Opti-MEM. NanoBRET assays were performed in white, 384-well plates (Corning) at a density of […]. All example compounds were prepared as concentrated stock solutions in DMSO (Sigma-Aldrich). Compounds are dissolved in DMSO to make 10 mM stock solution. […] A Labcyte ECHO 550 compound dispenser was used to facilitate compound transfer directly to cells. Cells were equilibrated for 2 hr with energy transfer probes and example compound prior to BRET measurements. […] For target engagement analysis, the energy transfer probes were added to the cells at concentrations optimized for the target in question (AKT E17K). Following compound incubation, NanoBRET NanoGlo Substrate (Promega Cat #N157D) and Extracellular Nanoluc Inhibitor (Promega Cat #N235C) was added according to the manufacturer's recommended protocol, and luminescence was measured on Envision Reader (Perkin Elmer) Multimode Luminometer equipped with 450 nm BPfilter (donor) and 600 nm LPfilter (acceptor), using 0.5 s integration time. Milli-BRET units (mBU) are calculated by multiplying the raw BRET values by 1000. Apparent tracer affinity values (EC50) were determined using the sigmoidal dose-response (variable slope).
Competitive displacement data were then plotted and data were fit to determine the EC50 value for each example compound.
On the technique in general: Bioluminescence resonance energy transfer reports proximity on the nanometre scale.
T1 sequence (P31749 whole entry E17K): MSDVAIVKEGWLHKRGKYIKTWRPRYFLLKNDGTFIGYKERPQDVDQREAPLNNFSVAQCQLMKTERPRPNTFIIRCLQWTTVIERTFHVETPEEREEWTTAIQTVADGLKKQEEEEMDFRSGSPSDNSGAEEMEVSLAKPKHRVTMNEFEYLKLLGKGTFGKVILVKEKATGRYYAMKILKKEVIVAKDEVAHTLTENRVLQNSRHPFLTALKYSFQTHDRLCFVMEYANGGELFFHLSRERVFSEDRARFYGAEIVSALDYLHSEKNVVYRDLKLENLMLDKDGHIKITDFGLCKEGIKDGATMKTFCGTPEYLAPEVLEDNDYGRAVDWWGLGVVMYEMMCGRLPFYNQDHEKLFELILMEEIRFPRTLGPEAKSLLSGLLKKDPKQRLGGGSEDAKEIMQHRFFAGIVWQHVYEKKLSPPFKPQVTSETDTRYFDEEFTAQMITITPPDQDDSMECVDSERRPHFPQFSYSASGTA
Take `N#Cc1nccc(N2C[C@H]3CN(Cc4ccc(-n5c(-c6cccnc6N)nc6ccc(-c7ccccc7)nc65)cc4)C[C@@H]3C2)n1` [Example 341, 4-((3aR,6aR)-5-(4-(2-(2-aminopyridin-3-yl)-5-phenyl-3H-imidazo[4,5-b]pyridin-3-yl)benzyl)hexahydropyrrolo[3,4-c]pyrrol-2(1H)-yl)pyrimidine-2-carbonitrile]: the IC50 (commonly the midpoint of a concentration-inhibition curve) was less than 15 nM. Consider `Cn1ncnc1-c1ccc2nc(-c3cccnc3N)n(-c3ccc(CN4CCC(Nc5ccnc(C#N)n5)CC4)cc3)c2n1` [Example 567, 4-((1-(4-(2-(2-Aminopyridin-3-yl)-5-(1-methyl-1H-1,2,4-triazol-5-yl)-3H-imidazo[4,5-b]pyridin-3-yl)benzyl)piperidin-4-yl)amino)pyrimidine-2-carbonitrile], for which the IC50 is less than 15 nM. For the molecule `N#Cc1ncnc(N[C@@H]2CCCN(Cc3ccc(-n4c(-c5cccnc5N)nc5ccc(-c6ccccc6)nc54)cc3)C2)n1` [Example 337, (R)-4-((1-(4-(2-(2-Aminopyridin-3-yl)-5-phenyl-3H-imidazo[4,5-b]pyridin-3-yl)benzyl)piperidin-3-yl)amino)-1,3,5-triazine-2-carbonitrile], the concentration for half-maximal inhibition (IC50) was less than 15 nM. The same measure, in the same setting: then `CC(C)(C)c1ccc2nc(-c3cccnc3N)n(-c3ccc(CN4CCC(Nc5ccnc(C#N)n5)CC4)cc3)c2n1` [Example 396, 4-((1-(4-(2-(2-Aminopyridin-3-yl)-5-(tert-butyl)-3H-imidazo[4,5-b]pyridin-3-yl)benzyl)piperidin-4-yl)amino)pyrimidine-2-carbonitrile], with 15 to 60 nM; and `N#Cc1ccc(-c2ccc3nc(-c4cccnc4N)n(-c4ccc(CN5CCN(c6nccc(C#N)n6)CC5)cc4)c3n2)cc1` [Example 319, 2-(4-(4-(2-(2-Aminopyridin-3-yl)-5-(4-cyanophenyl)-3H-imidazo[4,5-b]pyridin-3-yl)benzyl)piperazin-1-yl)pyrimidine-4-carbonitrile], with 60 to 600 nM.

`CC(C)c1ccc(-c2ccc3nc(-c4cccnc4N)n(-c4ccc(CN5CCC(Nc6ccnc(C#N)n6)CC5)cc4)c3n2)cn1` [Example 643, 4-((1-(4-(2-(2-Aminopyridin-3-yl)-5-(6-isopropylpyridin-3-yl)-3H-imidazo[4,5-b]pyridin-3-yl)benzyl)piperidin-4-yl)amino)pyrimidine-2-carbonitrile]: the IC50 was less than 15 nM.

As to `CN(C)c1cccc(-c2ccc3nc(-c4cccnc4N)n(-c4ccc(CN5CCC(Nc6ccnc(C#N)n6)CC5)cc4)c3n2)c1` [Example 521, 4-((1-(4-(2-(2-Aminopyridin-3-yl)-5-(3-(dimethylamino)phenyl)-3H-imidazo[4,5-b]pyridin-3-yl)benzyl)piperidin-4-yl)amino)pyrimidine-2-carbonitrile], the IC50 was less than 15 nM. As to `N#Cc1nccc(NC2CCN(Cc3ccc(-n4c(-c5cccnc5)nc5ccc(-c6ccc(F)cn6)nc54)cc3)CC2)n1` [Example 575, 4-((1-(4-(5-(5-Fluoropyridin-2-yl)-2-(pyridin-3-yl)-3H-imidazo[4,5-b]pyridin-3-yl)benzyl)piperidin-4-yl)amino)pyrimidine-2-carbonitrile], the IC50 lay within 60 to 600 nM. For `N#Cc1nccc(NC2CCN(Cc3ccc(-n4c(-c5cccnc5N)nc5ccc(-c6cnccc6C#N)nc54)cc3)CC2)n1` [Example 384, 4-((1-(4-(2-(2-Aminopyridin-3-yl)-5-(4-cyanopyridin-3-yl)-3H-imidazo[4,5-b]pyridin-3-yl)benzyl)piperidin-4-yl)amino)pyrimidine-2-carbonitrile], the IC50 was 15 to 60 nM. Same read-out and setting: then `N#Cc1ccnc(NC2CCN(Cc3ccc(-n4c(-c5cccnc5N)nc5ccc(-c6ccc(Cl)cc6)nc54)cc3)CC2)n1` [Example 371, 2-((1-(4-(2-(2-Aminopyridin-3-yl)-5-(4-chlorophenyl)-3H-imidazo[4,5-b]pyridin-3-yl)benzyl)piperidin-4-yl)amino)pyrimidine-4-carbonitrile], with 60 to 600 nM; and `Cn1cncc1-c1ccc2nc(-c3cccnc3N)n(-c3ccc(CN4CCC(Nc5ccnc(C#N)n5)CC4)cc3)c2n1` [Example 546, 4-((1-(4-(2-(2-Aminopyridin-3-yl)-5-(1-methyl-1H-imidazol-5-yl)-3H-imidazo[4,5-b]pyridin-3-yl)benzyl)piperidin-4-yl)amino)pyrimidine-2-carbonitrile], with less than 15 nM. As for `Cc1cccc(-c2ccc3nc(-c4cccnc4N)n(-c4ccc(CN5CCC(Nc6ccnc(C#N)n6)CC5)cc4)c3n2)c1` [Example 528, 4-((1-(4-(2-(2-Aminopyridin-3-yl)-5-(m-tolyl)-3H-imidazo[4,5-b]pyridin-3-yl)benzyl)piperidin-4-yl)amino)pyrimidine-2-carbonitrile], the IC50 was less than 15 nM. In the case of `Cn1ncc(-c2ccc3nc(-c4nccnc4N)n(-c4ccc(CN5CCC(Nc6ccnc(C#N)n6)CC5)cc4)c3n2)n1` [Example 562, 4-((1-(4-(2-(3-Aminopyrazin-2-yl)-5-(2-methyl-2H-1,2,3-triazol-4-yl)-3H-imidazo[4,5-b]pyridin-3-yl)benzyl)piperidin-4-yl)amino)pyrimidine-2-carbonitrile], the IC50 was less than 15 nM.

Still in this assay, the particulars now being: competitive tracer displacement in living cells, read-out: AKT1 E17K IC50.
Regarding `N#Cc1cc(N2CCN(Cc3ccc(-n4c(-c5cccnc5N)nc5cccnc54)cc3)CC2)ccn1` [Example 13, 4-(4-(4-(2-(2-Aminopyridin-3-yl)-3H-imidazo[4,5-b]pyridin-3-yl)benzyl)piperazin-1-yl)picolinonitrile], the IC50 is 600 to 10000 nM.

On to `N#Cc1nc2c(C(=O)NC3CCN(Cc4ccc(-n5c(-c6cccnc6N)nc6ccc(-c7ccccc7)nc65)cc4)CC3)cc(F)cc2s1` [Example 183, N-(1-(4-(2-(2-aminopyridin-3-yl)-5-phenyl-3H-imidazo[4,5-b]pyridin-3-yl)benzyl)piperidin-4-yl)-2-cyano-6-fluorobenzo[d]thiazole-4-carboxamide], for which the IC50 was 60 to 600 nM.

Regarding `N#Cc1cnccc1C(=O)NC1CCN(Cc2ccc(-n3c(-c4cccnc4N)nc4ccc(-c5ccccc5)nc43)cc2)CC1` [Example 59, N-(1-(4-(2-(2-Aminopyridin-3-yl)-5-phenyl-3H-imidazo[4,5-b]pyridin-3-yl)benzyl)piperidin-4-yl)-3-cyanoisonicotinamide], the IC50 fell in the range of 15 to 60 nM. `C[C@@H]1CN(Cc2ccc(-n3c(-c4cccnc4N)nc4ccc(-c5ccccc5)nc43)cc2)C[C@@H](C)N1c1ncnc(C#N)n1` [Example 256, 4-((2R,6R)-4-(4-(2-(2-Aminopyridin-3-yl)-5-phenyl-3H-imidazo[4,5-b]pyridin-3-yl)benzyl)-2,6-dimethylpiperazin-1-yl)-1,3,5-triazine-2-carbonitrile]: the IC50 lay in the range of 15 to 60 nM. With `N#Cc1ccnc(NCc2ccc(-n3c(-c4cccnc4N)nc4cccnc43)cc2)n1` [Example 134, 2-((4-(2-(2-Aminopyridin-3-yl)-3H-imidazo[4,5-b]pyridin-3-yl)benzyl)amino)pyrimidine-4-carbonitrile], the 50% inhibitory concentration (IC50) lay in the range of 600 to 10000 nM. Turning to `N#Cc1nccc(NC2CCN(Cc3ccc(-n4c(-c5cccnc5N)nc5ccc(-c6ccc(Cl)cc6)nc54)cc3)CC2)n1` [Example 308, 4-((1-(4-(2-(2-Aminopyridin-3-yl)-5-(4-chlorophenyl)-3H-imidazo[4,5-b]pyridin-3-yl)benzyl)piperidin-4-yl)amino)pyrimidine-2-carbonitrile], the IC50 was less than 15 nM. In the case of `CC(=O)Nc1cccc(-c2ccc3nc(-c4cccnc4N)n(-c4ccc(CN5CCN(c6cccc(C#N)n6)CC5)cc4)c3n2)c1` [Example 39, N-(3-(2-(2-Aminopyridin-3-yl)-3-(4-((4-(6-cyanopyridin-2-yl)piperazin-1-yl)methyl)phenyl)-3H-imidazo[4,5-b]pyridin-5-yl)phenyl)acetamide], the IC50 lay in the range of 60 to 600 nM. Same read-out and setting: with `N#Cc1ccc(C(=O)NCc2ccc(-n3c(-c4cccnc4N)nc4cccnc43)cc2)cn1` [Example 121, N-(4-(2-(2-Aminopyridin-3-yl)-3H-imidazo[4,5-b]pyridin-3-yl)benzyl)-6-cyanonicotinamide] the figure was 600 to 10000 nM. `C[C@H]1CN(Cc2ccc(-n3c(-c4cccnc4N)nc4ccc(-c5ccccc5)nc43)cc2)CCN1c1nccc(C#N)n1` [Example 207, (S)-2-(4-(4-(2-(2-Aminopyridin-3-yl)-5-phenyl-3H-imidazo[4,5-b]pyridin-3-yl)benzyl)-2-methylpiperazin-1-yl)pyrimidine-4-carbonitrile]: the IC50 was 60 to 600 nM. On to `N#Cc1nccc(NC2CCN(Cc3ccc(-n4c(-c5cccnc5N)nc5ccc(C6CCCCC6)nc54)cc3)CC2)n1` [Example 264, 4-((1-(4-(2-(2-Aminopyridin-3-yl)-5-cyclohexyl-3H-imidazo[4,5-b]pyridin-3-yl)benzyl)piperidin-4-yl)amino)pyrimidine-2-carbonitrile], for which the IC50 is less than 15 nM.

For the origin of these results see patent US12209087B2, “AKT1 modulators” (Alterome Therapeutics, Inc., priority 2022, dated 2025).
